In the experiment the target is Adenosylhomocysteinase (Homo sapiens, UniProt P23526). Put plainly: In vitro inhibitory activity against recombinant S-adenosyl-L-homocysteine hydrolase obtained from human placenta.
Chain of Adenosylhomocysteinase (P23526 whole entry): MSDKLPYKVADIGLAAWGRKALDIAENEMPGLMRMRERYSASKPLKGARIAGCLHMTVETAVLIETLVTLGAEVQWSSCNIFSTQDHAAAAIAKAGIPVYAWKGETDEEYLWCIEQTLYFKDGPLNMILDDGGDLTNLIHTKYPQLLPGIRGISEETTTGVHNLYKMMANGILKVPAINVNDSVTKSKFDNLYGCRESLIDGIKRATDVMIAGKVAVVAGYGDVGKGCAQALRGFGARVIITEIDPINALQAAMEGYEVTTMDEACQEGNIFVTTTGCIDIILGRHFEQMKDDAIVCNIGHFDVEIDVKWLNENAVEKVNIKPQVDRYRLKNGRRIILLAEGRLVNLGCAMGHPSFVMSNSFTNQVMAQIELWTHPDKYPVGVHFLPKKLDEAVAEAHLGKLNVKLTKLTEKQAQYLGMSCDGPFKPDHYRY

The term IC50 denotes the concentration needed to halve the response being measured. Regarding `Nc1ncnc2c1ncn2[C@@H]1C=C[C@@H](O)[C@H]1O`, the IC50 was 8.7 µM.
In the case of `Nc1ncnc2c1ncn2[C@@H]1C(F)=C[C@@H](O)[C@H]1O` it was 8.9 µM; in that of `Nc1ncnc2c1ncn2[C@@H]1C(F)=C(CO)[C@@H](O)[C@H]1O` [FLUORO-NEPLANOCIN A], 0.47 µM.
In the case of `Nc1ncnc2c1ncn2[C@@H]1C=C(CO)[C@@H](O)[C@H]1O` [NEOPLANOCIN A] it was 0.89 µM.

Source of the values: ChEMBL document CHEMBL1147541, “Synthesis of fluorinated cyclopentenyladenine as potent inhibitor of S-adenosylhomocysteine hydrolase” (Bioorg Med Chem Lett, 2004).
